Laboratory results from patent US7534811B2, “Cyclic onium compounds and glucosidase inhibitors” (Kinki University, priority 2003, dated 2009).

Experiments:
[1] = target: T1, small intestinal α-glucosidase (saccharase) (Rattus norvegicus, UniProt P23739); assay: Concentration for 50% inhibition, small intestinal α-glucosidase, sucrose substrate; format: biochemical; conditions: rat intestinal brush border membrane vesicles; substrate sucrose (74 mM); pH6.0; 37° C., 30 minutes; read-out: IC50 (μg/ml) Sucrose (converted)
T1 construct: Rat intestinal brush border membrane vesicles were prepared; from tissue; host or cells: rat small intestine, brush border membrane vesicles
Procedure: (§1) Rat intestinal brush border membrane vesicles were prepared, and a suspension in a 0.1M maleic acid salt buffer solution (pH6.0) was used as small intestinal α-glucosidase (maltase and saccharase).
(§2) 0.05 ml of sample compound solutions of differing concentration were added, respectively, to 0.1 ml of a substrate solution of sucrose (74 mM) and maltose (74 mM), and the solution was preheated at 37° C. for 2 to 3 minutes. 0.05 ml of an enzymatic solution was added thereto and the solution was allowed to incubate for 30 minutes. After incubation, 0.8 ml of water was added thereto and the solution was heated in a boiling water bath for 2 minutes to deactivate the enzyme. Blank was prepared as follows. After the enzymatic solution was added to each sample, water was immediately added, and the resulting mixture was heated in a boiling water bath for 2 minutes to deactivate the enzyme. The amount of d-glucose formed therein was measured using a glucose oxidase method. The substrate and test samples were dissolved in a 0.1M maleic acid buffer solution (pH6.0). The concentrations for 50% inhibition (IC50) were calculated based on the values obtained.

[2] = target: small intestinal α-glucosidase (maltase); assay: Concentration for 50% inhibition, small intestinal α-glucosidase, maltose substrate; format: biochemical; conditions: rat intestinal brush border membrane vesicles; substrate maltose (74 mM); pH6.0; 37° C., 30 minutes
Procedure: as §1, §2

T1 sequence (P23739 whole entry): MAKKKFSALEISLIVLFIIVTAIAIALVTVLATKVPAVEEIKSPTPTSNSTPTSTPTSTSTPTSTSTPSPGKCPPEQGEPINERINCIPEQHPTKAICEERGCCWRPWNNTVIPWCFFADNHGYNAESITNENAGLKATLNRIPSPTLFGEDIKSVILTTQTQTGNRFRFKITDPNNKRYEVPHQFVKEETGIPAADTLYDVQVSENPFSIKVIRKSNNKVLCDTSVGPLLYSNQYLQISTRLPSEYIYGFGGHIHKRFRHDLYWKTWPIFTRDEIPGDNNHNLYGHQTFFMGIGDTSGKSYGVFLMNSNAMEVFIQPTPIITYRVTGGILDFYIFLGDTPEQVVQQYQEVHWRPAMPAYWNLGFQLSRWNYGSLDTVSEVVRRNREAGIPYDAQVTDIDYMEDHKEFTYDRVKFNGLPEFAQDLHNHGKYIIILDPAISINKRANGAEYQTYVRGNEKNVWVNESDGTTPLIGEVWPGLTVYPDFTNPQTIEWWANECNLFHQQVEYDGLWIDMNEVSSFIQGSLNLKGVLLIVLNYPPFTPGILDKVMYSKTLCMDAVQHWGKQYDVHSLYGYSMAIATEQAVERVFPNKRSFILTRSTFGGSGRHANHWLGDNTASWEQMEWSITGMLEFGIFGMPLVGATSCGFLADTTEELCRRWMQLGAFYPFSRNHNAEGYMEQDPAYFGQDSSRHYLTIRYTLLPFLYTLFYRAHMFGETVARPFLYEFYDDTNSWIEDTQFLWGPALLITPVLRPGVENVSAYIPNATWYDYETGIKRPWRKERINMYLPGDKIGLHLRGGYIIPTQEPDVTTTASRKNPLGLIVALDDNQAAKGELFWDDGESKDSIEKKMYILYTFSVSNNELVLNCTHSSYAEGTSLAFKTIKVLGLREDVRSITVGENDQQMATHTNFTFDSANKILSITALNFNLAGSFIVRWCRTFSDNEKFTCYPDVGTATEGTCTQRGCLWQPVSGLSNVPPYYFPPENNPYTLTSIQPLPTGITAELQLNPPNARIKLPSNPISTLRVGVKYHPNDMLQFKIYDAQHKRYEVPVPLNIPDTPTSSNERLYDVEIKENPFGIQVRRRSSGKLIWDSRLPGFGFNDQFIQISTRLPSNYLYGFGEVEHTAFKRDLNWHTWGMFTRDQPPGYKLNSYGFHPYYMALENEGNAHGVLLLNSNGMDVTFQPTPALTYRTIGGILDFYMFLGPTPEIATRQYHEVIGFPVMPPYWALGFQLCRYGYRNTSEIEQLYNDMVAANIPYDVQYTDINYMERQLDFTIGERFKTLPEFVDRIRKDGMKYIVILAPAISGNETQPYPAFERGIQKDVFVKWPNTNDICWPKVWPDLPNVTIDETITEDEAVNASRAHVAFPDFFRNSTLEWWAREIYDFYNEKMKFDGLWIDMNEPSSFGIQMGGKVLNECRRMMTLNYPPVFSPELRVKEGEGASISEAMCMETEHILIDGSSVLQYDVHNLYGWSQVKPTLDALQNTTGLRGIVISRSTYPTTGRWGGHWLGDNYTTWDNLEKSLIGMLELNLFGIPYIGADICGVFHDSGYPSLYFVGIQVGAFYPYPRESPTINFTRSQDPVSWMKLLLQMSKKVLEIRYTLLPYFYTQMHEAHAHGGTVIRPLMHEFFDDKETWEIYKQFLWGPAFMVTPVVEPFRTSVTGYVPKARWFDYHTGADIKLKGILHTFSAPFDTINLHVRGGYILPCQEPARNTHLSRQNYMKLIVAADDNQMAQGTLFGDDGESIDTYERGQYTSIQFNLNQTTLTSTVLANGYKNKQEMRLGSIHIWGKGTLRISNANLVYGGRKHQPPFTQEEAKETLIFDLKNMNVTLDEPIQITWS

IC50 [1] [µM]	IC50 (μg/ml) Maltose [2] [µg/mL]	Structure (SMILES)
5.29	5.71	OC[C@@H]1[C@@H](O)[C@H](O)C[S@@+]1C[C@@H](O)[C@@H](O)CO [Compound 1]
339	79.3	C[S+]1C[C@H](O)[C@@H](O)[C@@H]1CO (stereo partly shown) [Compound 2]
